Laboratory results reported in patent US11912703B2, “6-azaindole compounds” (BRISTOL-MYERS SQUIBB COMPANY, priority 2017, dated 2024).
Where two headings read alike, the source gives them in different places.

Key:
[1] = target: human TLR9 (Homo sapiens (Human), UniProt Q9NR96); assay: TLR9 inhibition reporter assay (HEK-Blue SEAP);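 note: SEAP driven by IFN-β minimal promoter carrying five NF-κB and AP-1 sites, 22 h at 37 °C, compounds 0.05 nM–50 µM, inhibition scaled between agonist-plus-DMSO and reference-inhibitor wells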
[2] = target: human TLR7 (Homo sapiens (Human), UniProt Q9NYK1); assay: TLR7 inhibition reporter assay (HEK-Blue SEAP); type: cell-based; details: HEK-Blue cells overexpressing human TLR7, gardiquimod 7.5 μM stimulation
[3] = target: human TLR8 (Homo sapiens (Human), UniProt Q9NR97); assay: TLR8 inhibition reporter assay (HEK-Blue SEAP);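 note: SEAP driven by IFN-β minimal promoter with five NF-κB and AP-1 sites, compounds tested 0.05 nM to 50 µM, 22 h incubation, inhibition relative to agonist plus DMSO wells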
[4] = read-out: TLR9 IC50; HEK-Blue cells overexpressing human TLR9; ODN2006 5 nM stimulation; SEAP reporter
[5] = read-out: TLR8 IC50; HEK-Blue cells overexpressing human TLR8; R848 15.9 μM stimulation; SEAP reporter
[6] = read-out: TLR9 IC50; HEK-Blue cells overexpressing human TLR9, ODN2006 5 nM stimulation, SEAP reporter
[7] = read-out: TLR8 IC50; HEK-Blue cells overexpressing human TLR8, R848 15.9 μM stimulation, SEAP reporter

human TLR9, sequence (Q9NR96 26-1032): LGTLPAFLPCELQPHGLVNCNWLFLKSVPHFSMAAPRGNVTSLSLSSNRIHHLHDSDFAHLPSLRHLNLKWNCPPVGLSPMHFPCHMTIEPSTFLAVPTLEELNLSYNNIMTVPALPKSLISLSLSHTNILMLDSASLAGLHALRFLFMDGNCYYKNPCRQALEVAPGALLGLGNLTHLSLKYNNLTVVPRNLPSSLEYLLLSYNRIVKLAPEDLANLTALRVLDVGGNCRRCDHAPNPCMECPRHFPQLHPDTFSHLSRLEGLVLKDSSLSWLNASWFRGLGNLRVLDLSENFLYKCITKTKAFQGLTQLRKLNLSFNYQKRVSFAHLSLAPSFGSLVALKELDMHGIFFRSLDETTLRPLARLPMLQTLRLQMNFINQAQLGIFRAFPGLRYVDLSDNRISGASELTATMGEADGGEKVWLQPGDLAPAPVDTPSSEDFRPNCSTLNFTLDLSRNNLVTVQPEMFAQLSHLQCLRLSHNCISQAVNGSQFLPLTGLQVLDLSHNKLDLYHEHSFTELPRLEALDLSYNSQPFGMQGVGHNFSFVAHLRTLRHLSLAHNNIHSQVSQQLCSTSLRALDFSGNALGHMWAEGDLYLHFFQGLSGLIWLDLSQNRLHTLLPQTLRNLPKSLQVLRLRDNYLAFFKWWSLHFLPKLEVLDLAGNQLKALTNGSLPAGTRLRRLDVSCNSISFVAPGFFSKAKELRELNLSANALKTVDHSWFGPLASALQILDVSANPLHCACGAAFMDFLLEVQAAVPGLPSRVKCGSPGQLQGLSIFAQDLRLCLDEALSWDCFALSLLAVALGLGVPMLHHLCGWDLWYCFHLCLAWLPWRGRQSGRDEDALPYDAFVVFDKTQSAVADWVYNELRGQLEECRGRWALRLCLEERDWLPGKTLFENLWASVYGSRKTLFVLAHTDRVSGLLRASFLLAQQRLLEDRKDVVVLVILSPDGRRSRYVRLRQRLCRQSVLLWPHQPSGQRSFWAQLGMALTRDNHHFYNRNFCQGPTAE
human TLR8, sequence (Q9NR97 27-1041): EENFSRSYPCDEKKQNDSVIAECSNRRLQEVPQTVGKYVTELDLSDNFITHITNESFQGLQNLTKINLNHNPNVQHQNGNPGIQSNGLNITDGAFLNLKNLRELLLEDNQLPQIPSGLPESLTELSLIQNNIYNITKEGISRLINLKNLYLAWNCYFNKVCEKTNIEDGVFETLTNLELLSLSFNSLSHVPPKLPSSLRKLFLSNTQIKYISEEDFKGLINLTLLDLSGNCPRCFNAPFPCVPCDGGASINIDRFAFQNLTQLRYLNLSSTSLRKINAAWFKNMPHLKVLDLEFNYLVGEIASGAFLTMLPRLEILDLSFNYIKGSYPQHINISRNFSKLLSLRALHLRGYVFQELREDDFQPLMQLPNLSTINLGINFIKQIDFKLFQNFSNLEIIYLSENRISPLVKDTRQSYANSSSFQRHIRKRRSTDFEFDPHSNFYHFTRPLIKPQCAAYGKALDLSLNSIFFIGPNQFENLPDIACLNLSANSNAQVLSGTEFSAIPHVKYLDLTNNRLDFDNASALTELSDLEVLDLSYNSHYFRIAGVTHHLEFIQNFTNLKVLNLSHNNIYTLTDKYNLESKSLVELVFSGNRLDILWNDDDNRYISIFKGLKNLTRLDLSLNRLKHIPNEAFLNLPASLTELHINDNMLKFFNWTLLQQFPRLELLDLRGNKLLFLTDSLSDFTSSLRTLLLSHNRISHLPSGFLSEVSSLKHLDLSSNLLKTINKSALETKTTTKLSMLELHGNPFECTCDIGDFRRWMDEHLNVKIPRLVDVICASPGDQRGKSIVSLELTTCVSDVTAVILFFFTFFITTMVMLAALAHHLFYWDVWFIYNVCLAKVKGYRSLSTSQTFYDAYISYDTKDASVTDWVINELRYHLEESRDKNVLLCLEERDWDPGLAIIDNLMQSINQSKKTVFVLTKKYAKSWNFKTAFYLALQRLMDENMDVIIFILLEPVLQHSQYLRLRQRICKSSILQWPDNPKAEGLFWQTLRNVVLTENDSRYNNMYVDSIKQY
human TLR7, sequence (Q9NYK1 27-1049): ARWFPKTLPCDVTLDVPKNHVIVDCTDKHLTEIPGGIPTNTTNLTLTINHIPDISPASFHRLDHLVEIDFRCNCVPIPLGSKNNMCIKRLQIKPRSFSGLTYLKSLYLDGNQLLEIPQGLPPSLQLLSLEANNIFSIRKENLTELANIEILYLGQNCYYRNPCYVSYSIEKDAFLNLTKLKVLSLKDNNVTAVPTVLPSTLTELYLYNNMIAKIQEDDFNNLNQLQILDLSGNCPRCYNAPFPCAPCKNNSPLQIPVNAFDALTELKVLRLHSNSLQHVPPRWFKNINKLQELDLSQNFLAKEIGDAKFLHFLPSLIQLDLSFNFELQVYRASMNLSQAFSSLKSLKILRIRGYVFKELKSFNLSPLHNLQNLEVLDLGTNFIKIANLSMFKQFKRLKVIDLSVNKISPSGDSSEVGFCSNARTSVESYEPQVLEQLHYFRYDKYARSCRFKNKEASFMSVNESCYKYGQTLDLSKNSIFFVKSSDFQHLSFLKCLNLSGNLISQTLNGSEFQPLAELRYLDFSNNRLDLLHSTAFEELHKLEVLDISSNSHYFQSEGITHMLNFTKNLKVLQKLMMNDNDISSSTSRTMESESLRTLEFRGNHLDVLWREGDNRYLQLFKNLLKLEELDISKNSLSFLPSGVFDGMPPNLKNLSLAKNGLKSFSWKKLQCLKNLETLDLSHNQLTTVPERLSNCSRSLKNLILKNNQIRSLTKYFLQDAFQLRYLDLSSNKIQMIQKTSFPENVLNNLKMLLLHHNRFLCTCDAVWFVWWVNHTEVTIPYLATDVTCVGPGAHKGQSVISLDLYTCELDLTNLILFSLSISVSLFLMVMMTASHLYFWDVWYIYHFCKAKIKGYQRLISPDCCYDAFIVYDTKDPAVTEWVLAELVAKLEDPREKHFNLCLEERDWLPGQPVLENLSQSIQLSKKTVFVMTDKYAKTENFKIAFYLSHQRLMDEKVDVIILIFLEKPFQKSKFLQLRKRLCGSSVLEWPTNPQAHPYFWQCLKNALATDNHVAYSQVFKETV

Compound | IC50 [1, 4] | IC50 [2] | IC50 [3, 5] | IC50 [1, 6] | IC50 [3, 7]
Cc1c(-c2[nH]c3cnc(N4CCN(CC(=O)N5CCOCC5)C[C@H]4C)c(F)c3c2C(C)C)cn2ncnc2c1C [Example 469] | 47900 nM | 13 nM | 3.5 nM | – | –
COc1cc(-c2[nH]c3cnc(N4CCN(CC(F)(F)F)C[C@H]4C)c(F)c3c2C(C)C)cn2ncnc12 [Example 449] | – | 37 nM | – | > 50000 nM | 171 nM
COc1cc(-c2[nH]c3cnc(N4CCNCC4)c(C)c3c2C(C)C)cn2ncnc12 [Example 213, 6-(3-isopropyl-4-methyl-5-(piperazin-1-yl)-1H-pyrrolo [2,3-c]pyridin-2-yl)-8-methoxy-[1,2,4]triazolo[1,5-a]pyridine] | – | 1.5 nM | – | 517 nM | 3 nM
Cc1c(N2CCC(N3CC4(COC4)C3)CC2)ncc2[nH]c(-c3cc(C)c4ncnn4c3)c(C(C)C)c12 [Example 53] | – | 0.5 nM | – | 1390 nM | 2 nM
Cc1cc(-c2[nH]c3cnc(N4CCN(CC(=O)N(C)C)CC4)cc3c2C(C)C)cn2ncnc12 [Example 297] | – | > 3120 nM | – | 17900 nM | > 3120 nM
Cc1c(-c2[nH]c3cnc(N4CCN(CC(C)C)C[C@H]4C)c(F)c3c2C(C)C)cn2ncnc2c1C [Example 460] | > 50000 nM | 10 nM | 4.4 nM | – | –
COc1cc(-c2[nH]c3cnc(C4CCC(NCC(C)(C)C)CC4)cc3c2C(C)C)cn2ncnc12 (stereo not drawn) [Example 310] | – | 13 nM | – | 640 nM | 32 nM
COc1cc(-c2[nH]c3cnc(C4CCN(CC(N)=O)CC4)c(C)c3c2C(C)C)cn2ncnc12 [Example 11] | – | 1.6 nM | – | 91 nM | 8.3 nM
COc1cc(-c2[nH]c3cnc(C4CCC(N5CC6(COC6)C5)C4)cc3c2C(C)C)cn2ncnc12 (stereo not drawn) [Example 208] | – | 12 nM | – | 276 nM | 16 nM
CNC(=O)CNC1CCN(c2cc3c(C(C)C)c(-c4cc(OC)c5ncnn5c4)[nH]c3cn2)CC1 [Example 329] | – | 7.5 nM | – | 647 nM | 7.4 nM
Cc1c(N2CCC(NC3CCOCC3)CC2)ncc2[nH]c(-c3cc(C)c4ncnn4c3)c(C(C)C)c12 [Example 265] | – | 0.36 nM | – | 1020 nM | 0.42 nM
CNC(=O)CN(C)C1CCC(c2ncc3[nH]c(-c4cc(OC)c5ncnn5c4)c(C(C)C)c3c2F)CC1 (stereo not drawn) [Example 131] | – | 5 nM | – | 11400 nM | 7.9 nM
COc1cc(-c2[nH]c3cnc(N4CCN(C(=O)CN5CCOCC5)C[C@H]4C)c(F)c3c2C(C)C)cn2ncnc12 [Example 438] | – | 25 nM | – | > 50000 nM | 13 nM
Cc1c(-c2[nH]c3cnc(C4CCC(N5CC6(COC6)C5)CC4)c(F)c3c2C(C)C)cn2ncnc2c1C (stereo not drawn) [Example 50] | – | 0.76 nM | – | 1010 nM | 0.83 nM
Cc1c(-c2[nH]c3cnc(C4CCC(NCC(C)(C)O)CC4)c(C)c3c2C(C)C)cn2ncnc2c1C (stereo not drawn) [Example 92] | – | 34 nM | – | 548 nM | 32 nM
COc1cc(-c2[nH]c3cnc(N4CCN(CC(=O)N(C)C)CC4)c(C)c3c2C(C)C)cn2ncnc12 [Example 252] | – | 6.4 nM | – | 3360 nM | 5.2 nM
COc1cc(-c2[nH]c3cnc(C4CCN(C5COC5)CC4)c(F)c3c2C(C)C)cn2ncnc12 [Example 38] | – | 2.8 nM | – | 13100 nM | 12 nM
Cc1c(-c2[nH]c3cnc(N4CCN(C(=O)CN5CCOCC5)CC4)c(F)c3c2C(C)C)cn2ncnc2c1C [Example 421] | – | 16 nM | – | > 50000 nM | 12 nM
COCCNC1CCC(c2cc3c(C(C)C)c(-c4cn5ncnc5c(C)c4C)[nH]c3cn2)CC1 (stereo not drawn) [Example 347] | – | 3.9 nM | – | 790 nM | 30 nM
COc1cc(-c2[nH]c3cnc(N4CCC(NC5CCOCC5)CC4)c(F)c3c2C(C)C)cn2ncnc12 [Example 100] | – | 0.8 nM | – | 2340 nM | 0.25 nM
COc1cc(-c2[nH]c3cnc(N4CCN(CC(N)=O)CC4)cc3c2C(C)C)cn2ncnc12 [Example 319] | – | 12 nM | – | 14400 nM | 3.7 nM
Cc1c(-c2[nH]c3cnc(N4CCN(C5COC5)C[C@H]4C)c(F)c3c2C(C)C)cn2ncnc2c1C [Example 457] | 22000 nM | 3.2 nM | 2.5 nM | – | –
Cc1c(-c2[nH]c3cnc(N4CCN(CC(N)=O)CC4)c(F)c3c2C(C)C)cn2ncnc2c1C [Example 429] | – | 9.3 nM | – | > 50000 nM | 2.3 nM
